Results on 18 compounds are retold here after patent US7803816B2, “MCH receptor antagonists” (Hoffmann-La Roche Inc., priority 2005, dated 2010).

By IC50 is commonly meant the concentration needed to halve the response being measured.

Structures can show the parent of a compound that is named as a salt.

T1 sequence (Q99705 whole entry): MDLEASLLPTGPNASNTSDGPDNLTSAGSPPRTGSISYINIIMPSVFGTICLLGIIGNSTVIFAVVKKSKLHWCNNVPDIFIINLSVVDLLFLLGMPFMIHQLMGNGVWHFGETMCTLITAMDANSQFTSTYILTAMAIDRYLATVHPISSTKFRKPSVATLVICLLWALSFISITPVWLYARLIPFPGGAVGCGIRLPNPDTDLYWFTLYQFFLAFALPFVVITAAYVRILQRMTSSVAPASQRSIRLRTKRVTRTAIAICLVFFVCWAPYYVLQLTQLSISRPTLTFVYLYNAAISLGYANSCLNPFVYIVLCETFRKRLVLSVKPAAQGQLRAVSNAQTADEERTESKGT

The assay addresses T1, recombinant human MCHR1-receptors (Homo sapiens, UniProt Q99705).
T1 construct: expressed in transfected cells
The assay is described as follows: MCHR filter binding assay (competition binding). The note with it: membranes from CHO-K1 cells expressing human MCHR1; 0.2 nM [Phe13,[125I]Tyr19]-MCH; read-out: IC50 (nM), in vitro activity (binding assay). The method, boiled down:
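Membranes from CHO-K1 cells stably expressing human MCHR1 (2.8 μg) preincubated 15 min with competitor, then 1 h at rt with 0.2 nM [Phe13,[125I]Tyr19]-MCH in HEPES/CaCl2/BSA/phenanthroline/Triton buffer. Bound radioactivity counted after rapid filtration over PVP/BSA-treated GF/B filters.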
Regarding `COC(=O)Nc1ccc2c(c1)C[C@H](CN1CCC(n3c(C(C)(C)O)nc4cc(C)ccc43)CC1)C2` [Example 6, ((R)-2-{4-[2-(1-Hydroxy-1-methyl-ethyl)-5-methyl-benzoimidazol-1-yl]-piperidin-1-ylmethyl}-indan-5-yl)-carbamic acid methyl ester], the IC50 was 20 to 200 nM.

Consider “N-{(R)-2-[(3R,4R)-4-(2,5-Dimethyl-benzoimidazol-1-yl)-3-methoxy-piperidine-1-carbonyl]-indan-5-yl}-isobutyramide [Example 57]”, for which the IC50 lay in the range of 200 to 5000 nM.

Take “{(R)-2-[4-(2-tert-Butyl-5-methyl-benzoimidazol-1-yl)-piperidin-1-ylmethyl]-indan-5-yl}-methyl-amine [Example 56]”: the IC50 was 200 to 5000 nM.

In the case of `Cc1ccc2c(c1)nc(C)n2C1CCN(C[C@H]2Cc3ccc(NC(=O)Cc4cccs4)cc3C2)CC1` [Example 38, N-{(S)-2-[4-(2,5-Dimethyl-benzoimidazol-1-yl)-piperidin-1-ylmethyl]-indan-5-yl}-2-thiophen-2-yl-acetamide], the IC50 was less than 20 nM.

With `Cc1ccc2c(c1)nc(C)n2C1CCN(C[C@H]2Cc3ccc(NC(=O)C(C)C)cc3C2)CC1` [Example 48, N-{(S)-2-[4-(2,5-Dimethyl-benzoimidazol-1-yl)-piperidin-1-ylmethyl]-indan-5-yl}-isobutyramide], the concentration for half-maximal inhibition (IC50) fell in the range of 20 to 200 nM.

Turning to `COC(=O)Nc1ccc2c(c1)C[C@H](CN1CCC(n3c(-c4ccccc4)nc4cc(C)ccc43)CC1)C2` [Example 42, {(R)-2-[4-(5-Methyl-2-phenyl-benzoimidazol-1-yl)-piperidin-1-ylmethyl]-indan-5-yl}-carbamic acid methyl ester], the IC50 is less than 20 nM.

Regarding `CO[C@@H]1CN(C[C@@H]2Cc3ccc(NC(=O)C(C)C)cc3C2)CC[C@H]1n1c(C2CC2)nc2cc(C)ccc21` [Example 73, N-{(R)-2-[(3R,4R)-4-(2-Cyclopropyl-5-methyl-benzoimidazol-1-yl)-3-methoxy-piperidin-1-ylmethyl]-indan-5-yl}-isobutyramide], the IC50 was 20 to 200 nM.

For the compound `Cc1ccc2c(c1)nc(C(C)C)n2[C@@H]1CCN(CC2Cc3ccc(NC(=O)C4CC4)cc3C2)C[C@H]1O` (stereo in doubt) [Example 2, Cyclopropanecarboxylic acid {(R)-2-[(3R,4R)-3-hydroxy-4-(2-isopropyl-5-methyl-benzoimidazol-1-yl)-piperidin-1-ylmethyl]-indan-5-yl}-amide], the IC50 is 20 to 200 nM.

With `COC(=O)Nc1ccc2c(c1)C[C@H](CN1CC[C@@H](n3c(C(C)C)nc4cc(C)ccc43)[C@H](OC)C1)C2` [Example 77, {(R)-2-[(3R,4R)-4-(2-Isopropyl-5-methyl-benzoimidazol-1-yl)-3-methoxy-piperidin-1-ylmethyl]-indan-5-yl}-carbamic acid methyl ester], the IC50 was in the range of 20 to 200 nM.

Regarding `CO[C@@H]1CN(C[C@H]2Cc3ccc(Br)cc3C2)CC[C@H]1n1c(C(C)(C)C)nc2cc(C)ccc21` [Example 26, 1-[(3R,4R)-1-((S)-5-Bromo-indan-2-ylmethyl)-3-methoxy-piperidin-4-yl]-2-tert-butyl-5-methyl-1H-benzoimidazole], the IC50 lay in the range of 20 to 200 nM.

As to `CS(=O)(=O)c1ccc2c(c1)nc(C(F)(F)F)n2C1CCN(C[C@H]2Cc3ccc(Br)cc3C2)CC1` [Example 121, 1-[1-((S)-5-Bromo-indan-2-ylmethyl)-piperidin-4-yl]-5-methanesulfonyl-2-trifluoromethyl-1H-benzoimidazole], the IC50 was in the range of 20 to 200 nM.

On to `Cc1ccc2c(c1)nc(Cl)n2C1CCN(C[C@@H]2Cc3ccc(NC(=O)C4CC4)cc3C2)CC1` [Example 30, Cyclopropanecarboxylic acid {(R)-2-[4-(2-chloro-5-methyl-benzoimidazol-1-yl)-piperidin-1-ylmethyl]-indan-5-yl}-amide; dihydrochloride], for which the IC50 was 200 to 5000 nM.

As to `CO[C@H]1CN(CC2Cc3cc(Cl)c(Cl)cc3C2)CC[C@@H]1n1c(C)nc2cc(C)ccc21` [Example 94, 1-[(3S,4S)-1-(5,6-Dichloro-indan-2-ylmethyl)-3-methoxy-piperidin-4-yl]-2,5-dimethyl-1H-benzoimidazole; dihydrochloride], the half-inhibitory concentration (IC50) fell in the range of 200 to 5000 nM.

As for `Cc1ccc2c(c1)CC(CN1CC[C@@H](n3c(C(C)(C)O)nc4cc(C)ccc43)[C@H](O)C1)C2` (stereo partly drawn) [Example 114, (3R,4R)-4-[2-(1-Hydroxy-1-methyl-ethyl)-5-methyl-benzoimidazol-1-yl]-1-(5-methyl-indan-2-ylmethyl)-piperidin-3-ol], the half-maximal inhibitory concentration (IC50) fell in the range of 20 to 200 nM.

For `CCC(C)C(=O)Nc1ccc2c(c1)CC(CN1CCC(n3c(C)nc4cc(C)ccc43)CC1)C2` (stereo not drawn) [Example 51, N-{2-[4-(2,5-Dimethyl-benzoimidazol-1-yl)-piperidin-1-ylmethyl]-indan-5-yl}-2-methyl-butyramide], the IC50 was in the range of 20 to 200 nM.

Take `Cc1cc2nc(C(C)(C)O)n(C3CCN(C[C@H]4Cc5ccc(Br)cc5C4)CC3)c2cc1F` [Example 124, 2-{1-[1-((S)-5-Bromo-indan-2-ylmethyl)-piperidin-4-yl]-6-fluoro-5-methyl-1H-benzoimidazol-2-yl}-propan-2-ol]: the concentration for half-maximal inhibition (IC50) was less than 20 nM.

`CO[C@@H]1CN(CC2Cc3ccc(C)cc3C2)CC[C@H]1n1c(C(C)(C)O)nc2cc(C)ccc21` (stereo partly drawn) [Example 117, 2-{1-[(3R,4R)-3-Methoxy-1-(5-methyl-indan-2-ylmethyl)-piperidin-4-yl]-5-methyl-1H-benzoimidazol-2-yl}-propan-2-ol]: the IC50 fell in the range of 20 to 200 nM.

For `COC1CN(C[C@@H]2Cc3ccc(NC(=O)C4CC4)cc3C2)CCC1n1c(C(C)C)nc2cc(C)ccc21` (stereo partly drawn) [Example 64, Cyclopropanecarboxylic acid {(R)-2-[4-(2-isopropyl-5-methyl-benzoimidazol-1-yl)-3-methoxy-piperidin-1-ylmethyl]-indan-5-yl}-amide], the IC50 was less than 20 nM.
